# According to US8227513B2, “Food composition for binding acetaldehyde in mouth and in digestive track, and method for the preparation of the composition” (Biohit Oyj, priority 2005, dated 2012):
# Experiment: capability of cysteine to bind acetaldehyde from beers and yoghurts (gas chromatograph)
# Details: for acetaldehyde concentration after the treatment: incubated 5 min at room temperature
# Description: In the test, the capability of cysteine to bind acetaldehyde from light alcohol drinks and milk products, such as yoghurt, was examined. The amounts of acetaldehyde in four Finnish yoghurts and three beers were measured by means of a standardized method (Homann et al. 1997. High acetaldehyde levels in saliva after ethanol consumption: Methodological aspects and pathogenic implications. Carcinogenesis 18:1739-1743). The average acetaldehyde concentration (±SEM) in the beers was 146±30 μM. L-cysteine was added to the beers so that the final cysteine concentration of the product was 0 (the control), 0.1, 3 and 10 mM (i.e., 0 mg/l, 12.1 mg/l, 363 mg/l and 1210 mg/l); thereafter, the beers were incubated for 5 min at room temperature. Thereafter, the acetaldehyde contents were measured by means of a gas chromatograph. The acetaldehyde concentrations after the treatment were 146±30 μM, 133±32 μM, 26±9 μM and 10±3 μM, correspondingly. In the yoghurt, the acetaldehyde concentrations were 419±53 μM, on an average. L-cysteine was added so that the cysteine concentrations in the final product were 0 (the control), 0.1, 3 and 10 mM (i.e., 0 mg/l, 12.1 mg/l, 363 mg/l, and 1210 mg/l); thereafter, the yoghurts were incubated for 5 min at room temperature. The acetaldehyde concentrations after the treatment were 419±53 μM, 240±42 μM, 55±15 μM, and 15±2 μM.
smiles,measurement,setting,value
N[C@@H](CS)C(=O)O [L-cysteine],acetaldehyde concentration after the treatment,"beers (control 146±30 μM), final cysteine concentration 0.1 mM (12.1 mg/l), mean ±SEM",133 ± 32 µM
same,acetaldehyde concentration after the treatment,"beers (control 146±30 μM), final cysteine concentration 3 mM (363 mg/l), mean ±SEM",26 ± 9 µM
same,acetaldehyde concentration after the treatment,"beers (control 146±30 μM), final cysteine concentration 10 mM (1210 mg/l), mean ±SEM",10 ± 3 µM
same,acetaldehyde in the products eliminated,"the products (beers and yoghurts), 3 mM of cysteine (363 mg/l)",over 80%
same,acetaldehyde concentration after the treatment,"yoghurts (control 419±53 μM), cysteine concentration 0.1 mM (12.1 mg/l)",240 ± 42 µM
same,acetaldehyde concentration after the treatment,"yoghurts (control 419±53 μM), cysteine concentration 3 mM (363 mg/l)",55 ± 15 µM
same,acetaldehyde concentration after the treatment,"yoghurts (control 419±53 μM), cysteine concentration 10 mM (1210 mg/l)",15 ± 2 µM
